For assay [1], the target named is Mu-type opioid receptor (Cavia porcellus) (UniProt P97266). To be noted: Ileum, 1 uM.
Assay [2] concerns the target T1, Delta-type opioid receptor (Homo sapiens, UniProt P41143). Put plainly: Agonist activity at human opioid delta receptor expressed in mouse HN9.10 cells assessed as [35S]GTPgammaS binding. The assay is classed as functional, cell-based. On the technique in general: Binding of GTPγS marks nucleotide exchange on a G protein.
The target in assay [3] is T2, Mu-type opioid receptor (Rattus norvegicus, UniProt P33535). The experiment in a line: Displacement of [3H]DPDPE from rat mu opioid receptor. (Displacement assays read how much labelled ligand stays bound in the presence of the test substance.)
T2 sequence (P33535 whole entry): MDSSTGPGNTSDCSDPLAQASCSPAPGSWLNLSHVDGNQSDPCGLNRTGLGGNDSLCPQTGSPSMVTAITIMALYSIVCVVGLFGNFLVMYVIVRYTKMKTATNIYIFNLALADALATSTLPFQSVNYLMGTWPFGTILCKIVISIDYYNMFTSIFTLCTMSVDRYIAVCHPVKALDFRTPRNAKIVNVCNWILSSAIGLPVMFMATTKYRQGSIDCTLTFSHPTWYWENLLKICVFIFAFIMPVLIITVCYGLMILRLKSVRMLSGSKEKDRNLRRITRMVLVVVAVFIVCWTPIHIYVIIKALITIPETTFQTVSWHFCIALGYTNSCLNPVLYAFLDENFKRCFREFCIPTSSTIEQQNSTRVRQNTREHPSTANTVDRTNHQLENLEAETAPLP
The target in assay [4] is T2, Mu-type opioid receptor. Put plainly: Agonist activity at rat mu opioid receptor expressed in mouse HN9.10 cells assessed as [35S]GTPgammaS binding. The assay is classed as functional, cell-based.
A further assay deals with Substance-P receptor (Homo sapiens, UniProt P25103). The experiment in a line: Displacement of [3H]substance P frome human NK1 receptor.
Substance-P receptor, sequence (P25103 whole entry): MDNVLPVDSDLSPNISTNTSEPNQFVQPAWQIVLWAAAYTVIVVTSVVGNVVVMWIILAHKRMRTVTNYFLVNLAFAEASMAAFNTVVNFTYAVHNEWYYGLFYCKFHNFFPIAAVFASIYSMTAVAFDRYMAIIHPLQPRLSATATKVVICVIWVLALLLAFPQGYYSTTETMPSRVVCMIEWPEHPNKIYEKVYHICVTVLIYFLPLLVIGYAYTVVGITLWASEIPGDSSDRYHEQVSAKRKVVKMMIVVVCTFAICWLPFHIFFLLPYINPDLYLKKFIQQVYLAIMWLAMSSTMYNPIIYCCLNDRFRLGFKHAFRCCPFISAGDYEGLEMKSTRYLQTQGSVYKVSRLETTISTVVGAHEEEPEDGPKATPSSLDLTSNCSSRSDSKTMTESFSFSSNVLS
Assay [5] addresses T1, Delta-type opioid receptor. The experiment in a line: Displacement of [3H]DPDPE from human delta opioid receptor.
Assay [6] addresses T3, Delta-type opioid receptor (Mus musculus, UniProt P32300).
Assay [7] deals with Mu-type opioid receptor (Rattus norvegicus) (UniProt P33535). The experiment in a line: Agonist activity at rat mu opioid receptor expressed in mouse HN9.10 cells assessed as [35S]GTPgammaS binding relative to control. Type of assay: functional, cell-based.
Mu-type opioid receptor (Rattus norvegicus), sequence (P33535 whole entry): as the sequence (P33535 whole entry) above
Assay [8] addresses Substance-P receptor (Cavia porcellus) (UniProt P30547). Conditions: Ileum.
The target in assay [9] is T3, Delta-type opioid receptor. The source holds these as a separate data set.

Mu-type opioid receptor (Cavia porcellus), sequence (P97266 whole entry): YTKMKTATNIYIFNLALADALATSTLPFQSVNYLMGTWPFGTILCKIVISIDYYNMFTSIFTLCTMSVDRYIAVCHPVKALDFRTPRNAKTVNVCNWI
T1 sequence (P41143 whole entry): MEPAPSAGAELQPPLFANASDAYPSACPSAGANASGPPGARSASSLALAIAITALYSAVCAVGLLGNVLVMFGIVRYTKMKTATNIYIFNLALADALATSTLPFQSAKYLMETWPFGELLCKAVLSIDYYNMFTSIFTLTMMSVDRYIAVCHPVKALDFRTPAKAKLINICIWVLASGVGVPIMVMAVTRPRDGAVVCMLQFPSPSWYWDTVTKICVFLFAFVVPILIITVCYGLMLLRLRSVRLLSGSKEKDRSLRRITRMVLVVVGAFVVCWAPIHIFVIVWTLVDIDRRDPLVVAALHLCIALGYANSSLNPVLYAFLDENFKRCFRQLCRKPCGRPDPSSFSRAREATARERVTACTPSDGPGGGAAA
T3 sequence (P32300 whole entry): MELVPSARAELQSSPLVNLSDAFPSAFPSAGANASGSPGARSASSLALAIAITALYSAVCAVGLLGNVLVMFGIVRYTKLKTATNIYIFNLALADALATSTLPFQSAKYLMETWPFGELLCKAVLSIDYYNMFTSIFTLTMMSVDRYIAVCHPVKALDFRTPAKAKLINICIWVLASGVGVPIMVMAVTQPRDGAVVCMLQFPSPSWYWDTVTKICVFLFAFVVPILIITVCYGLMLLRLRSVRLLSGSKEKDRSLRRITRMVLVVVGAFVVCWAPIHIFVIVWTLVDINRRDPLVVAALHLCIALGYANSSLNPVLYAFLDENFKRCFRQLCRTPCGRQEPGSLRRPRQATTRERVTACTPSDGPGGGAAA
Substance-P receptor (Cavia porcellus), sequence (P30547 whole entry): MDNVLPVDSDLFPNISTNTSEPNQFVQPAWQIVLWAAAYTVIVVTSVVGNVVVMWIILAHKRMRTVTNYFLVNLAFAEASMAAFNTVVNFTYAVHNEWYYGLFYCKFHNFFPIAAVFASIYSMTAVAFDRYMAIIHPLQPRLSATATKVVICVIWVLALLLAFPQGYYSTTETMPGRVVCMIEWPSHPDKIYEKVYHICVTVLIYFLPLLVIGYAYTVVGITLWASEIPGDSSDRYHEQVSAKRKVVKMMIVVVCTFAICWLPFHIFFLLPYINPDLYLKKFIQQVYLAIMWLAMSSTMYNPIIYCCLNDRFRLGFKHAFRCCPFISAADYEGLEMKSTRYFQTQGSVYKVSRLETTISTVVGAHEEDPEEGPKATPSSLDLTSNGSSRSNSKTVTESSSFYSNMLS

As for `CC(C)C[C@H](NC(=O)[C@@H]1CCCN1C(=O)[C@H]1NC(=O)[C@H](Cc2ccccc2)NC(=O)CNC(=O)[C@@H](NC(=O)[C@@H](N)Cc2ccc(O)cc2)C(C)(C)SSC1(C)C)C(=O)N[C@@H](Cc1c[nH]c2ccccc12)C(=O)NCc1cc(C(F)(F)F)cc(C(F)(F)F)c1`, the inhibition (usually the change of the read-out against control, counted positive when it falls) in assay [1] stood at 0.6%. In addition, the EC50 (in general, the midpoint of the concentration-response curve) in assay [2] was 120 nM; at Mu-type opioid receptor [4], 130 nM. In addition, the IC50 (usually the concentration needed to halve the response being measured) at Mu-type opioid receptor [3] was 4170 nM; on Substance-P receptor it was 0.417 nM; in assay [5], 72.4 nM. In addition, the Ki (as a rule, the equilibrium dissociation constant of an inhibitor or competing ligand from its target) on Mu-type opioid receptor [3] was determined as 2100 nM; on Substance-P receptor, 0.18 nM; in [5], 38 nM.
In assay [1], `CCCC[C@@H]1NC(=O)[C@H](Cc2ccccc2)NC(=O)CNC(=O)[C@@H](NC(=O)[C@@H](N)Cc2ccc(O)cc2)C(C)(C)SSC(C)(C)[C@H](C(=O)N2CCC[C@H]2C(=O)N[C@@H](CC(C)C)C(=O)N[C@@H](Cc2c[nH]c3ccccc23)C(=O)NCc2cc(C(F)(F)F)cc(C(F)(F)F)c2)NC(=O)[C@@H]2CCCN2C1=O` registered an inhibition of 6%. In [6], this compound registered a half-inhibitory concentration (IC50) of 250 nM. The EC50 in assay [2] was 530 nM; at Mu-type opioid receptor [4] it was 2900 nM. Moreover, the inhibition constant (Ki) stood at 2000 nM at Mu-type opioid receptor [3], 59 nM on Substance-P receptor and 150 nM in assay [5]. Also, the pIC50 (commonly the negative decadic logarithm of the IC50, by convention in mol/L) turned out to be 5.43 at Mu-type opioid receptor [3], 6.87 on Substance-P receptor and 6.5 in [5]. The negative logarithm of the EC50 (pEC50) (usually the EC50 on a negative log10 scale, so that one unit is a factor of ten) on Mu-type opioid receptor [4] amounted to 5.67. For the same compound, in assay [7], the Emax (in general, the greatest response seen or fitted, relative to the assay's reference) was 15%. The same compound came in with a Ke in assay [8] of 72 nM.
`CCCC[C@@H]1NC(=O)[C@H](Cc2ccccc2)NC(=O)CNC(=O)[C@@H](NC(=O)[C@@H](N)Cc2ccc(O)cc2)C(C)(C)SSC(C)(C)[C@@H](C(=O)N2CCC[C@H]2C(=O)N[C@@H](CC(C)C)C(=O)N[C@@H](Cc2c[nH]c3ccccc23)C(=O)NCc2cc(C(F)(F)F)cc(C(F)(F)F)c2)NC(=O)[C@@H]2CCCN2C1=O` displayed an inhibition in assay [1] of 7%. Further, the EC50 in [2] turned out to be 120 nM; on Mu-type opioid receptor [4], 140 nM. In addition, the IC50 on Mu-type opioid receptor [3] is 2040 nM; at Substance-P receptor it was 4.27 nM; in assay [5] it was 1380 nM; in assay [9], 1100 nM. Moreover, the results for the Ki (on Mu-type opioid receptor [3]; on Substance-P receptor; in assay [5]) were 1000 nM, 1.9 nM and 720 nM, respectively. In addition, the maximal response (Emax) in assay [7] was 26%. In addition, the Ke in assay [8] is 66 nM.
In assay [1], `CC(C)C[C@H](NC(=O)[C@@H]1CCCN1C(=O)[C@@H]1NC(=O)[C@H](Cc2ccccc2)NC(=O)CNC(=O)[C@@H](NC(=O)[C@@H](N)Cc2ccc(O)cc2)C(C)(C)SSC1(C)C)C(=O)N[C@@H](Cc1c[nH]c2ccccc12)C(=O)NCc1cc(C(F)(F)F)cc(C(F)(F)F)c1` yielded an inhibition of 26%.
Consider `CC(C)C[C@H](NC(=O)[C@@H]1CCCN1C(=O)[C@H]1NC(=O)[C@H](Cc2ccccc2)NC(=O)CNC(=O)[C@H](NC(=O)[C@@H](N)Cc2ccc(O)cc2)C(C)(C)SSC1(C)C)C(=O)N[C@@H](Cc1c[nH]c2ccccc12)C(=O)NCc1cc(C(F)(F)F)cc(C(F)(F)F)c1`, for which the half-inhibitory concentration (IC50) is 4370 nM at Mu-type opioid receptor [3], 0.0123 nM on Substance-P receptor and 3.63 nM in [5].

The values are drawn from ChEMBL document CHEMBL1212839 (J Med Chem, 2010).
